Measurements: patent US20240358683A1, “COMPOSITION FOR PREVENTING OR TREATING NEURODEGENERATIVE DISEASE COMPRISING COMPOUND INDUCING EXPRESSION OF ANTI-AGING GENE KLOTHO” (KLOTHO SCIENCES, priority 2021, published 2024)

What was measured:
[1] = tested on: human klotho gene; test: Luciferase expression experiment, human klotho promoter reporter (1.7 kbp / 240 bp) in RPTEC cells; type: cell-based; conditions: 5 μM, 24 hours, compared among Comparative Examples 1 to 4, FIG. 1
Protocol: (§1) In order to evaluate whether the klotho gene was expressed by the evaluation of luciferase activity, human renal proximal tubule epithelial cells (RPTECs) (ATCC CRL-4031), which are epithelial cells of the proximal tubule of the human kidneys, were purchased from Lonza, USA and used.
(§2) For culturing, a Renal Epithelial Growth Medium (REGM™) Bullet kit, also manufactured by the same Lonza company, was used, and the cells were cultured under conditions of 37° C. and 5% CO2. As a plasmid for luciferase expression, a plasmid in which the promoter site of a human KL (klotho) gene was disposed to regulate the expression of a firefly luciferase gene was used.
The plasmid was incorporated into cells using an X-treme GENE transfection reagent from Roche. The activity of luciferase expressed in cells was measured using a Dual-Luciferase reporter assay system manufactured by Promega. After the cultured cells were treated with each compound at an indicated concentration for 24 hours, the activity of luciferase was measured. It is indirectly shown that the expression of the klotho gene may be increased when the activity of luciferase is high. […]

[2] = tested on: human klotho gene; test: Luciferase expression experiment, reporter gene pHKP-luc (promoter up to -2.1 kb upstream of the human klotho gene) in RPTECs; type: cell-based
Protocol: as §1, §2
The plasmid was incorporated into cells using an X-treme GENE transfection reagent from Roche. The activity of luciferase expressed in cells was measured using a Dual-Luciferase reporter assay system manufactured by Promega. After the cultured cells were treated with each compound at an indicated concentration for 24 hours, the activity of luciferase was measured. It is indirectly shown that the expression of the klotho gene may be increased when the activity of luciferase is high.
The results of confirming the expression of a reporter gene by treating RPTECs, which are epithelial cells of the proximal tubule of the human kidneys, with Examples 1 to 6 at concentrations of 0.5, 1 and 5 μM and Comparative Example 1 at a concentration of 5 μM and using a reporter gene (pHKP-luc) including a promoter included up to −2.1 kb upstream of the human klotho gene are illustrated in FIGS. 2 and 3.

[3] = tested on: klotho (KL) gene; test: Quantitative evaluation of klotho (KL) gene expression level using real-time PCR in RPTEC cells; type: cell-based, human; conditions: RPTEC cells treated for 6 hours; vs Comparative Example 1; FIG. 4
Protocol: For RNA extraction from RPTEC cells, which are epithelial cells of the proximal tubule of the human kidneys, treated with the compounds of Comparative Example 1 and Examples 1 and 2 for 6 hours, an RNeasy kit from Qiagen Inc. was used. The results of preparing cDNA from extracted RNA using a Superscript II kit from Thermo Fisher Scientific, Inc. and performing the quantitative evaluation using Taqman Gene Expression assays from Applied Biosystems as a klotho (KL) gene-specific kit are illustrated in FIG. 4.

[4] = tested on: HT22 cells; test: Neuronal senescence inhibition, senescence β-galactosidase staining; type: cell-based, mouse; conditions: FIG. 7
Protocol: (§3) HT22 cells, neuronal cells derived from mouse hippocampus, were cultured in DMEM culture medium supplemented with 10% FBS. Cell cultures were incubated in a 37° C. incubator at 5% CO2, and when the cells grew to saturate the surface of the culture dish by 80%, they were treated with 0.05% trypsin and transferred to new culture dishes for passage. The compound was added to the medium at each passage to maintain a final concentration of 2.5 μM. Cells with only DMSO as solvent were used as a negative control, and cells from three passages (#5) were used as a non-aging control. All senescent cells were cultured in 20 passages (#25).
To check the degree of senescence of the cells, “Senescence β-galactosidase staining kit” from Cell Signaling Technology was used. The staining solution was added to the cells on the day of the experiment and the stained cells were checked 8 hours later. The number of stained cells was determined and expressed as a percentage of the total number of cells observed under a 200× microscope, and the number of stained cells in three different locations per sample was counted and averaged. As the expression of β-galactosidase enzyme increases as the aging of cells progresses, stained cells can be judged as more aged cells than unstained cells.

[5] = tested on: 5×FAD mice; test: Passive avoidance experiment in 5×FAD mice; type: in vivo; conditions: 10 mg/kg p.o. daily for 4 weeks, compared to normal mice, FIG. 12
Excerpt: (§4) In this experiment, 5×FAD mice aged 4 months or 6 months were used. 5×FAD mice are Alzheimer's mice genetically modified to overproduce beta amyloid (Aβ, β amyloid) and were provided by the KIST Research Animal Resource Center, which maintains and sells them. Normal control (WT) mice, which are not genetically modified to overproduce β-amyloid (Aβ), were provided by the KIST Research Animal Resource Center. The animals were acclimatized for 1 week before the experiments. Mice were kept on an ad libitum diet in an animal room maintained at 22±2° C. and 40-60% humidity, and the light and dark cycles were controlled at 12-hour intervals. […]
Animal model mice and normal control mice received vehicle (5% DMSO+65% PEG400+30% Saline) or vehicle with KS1 (Example 10) dissolved in it orally (p.o.) at a concentration of 10 mg/kg daily for 4 or 12 weeks. […] The body weight was measured weekly during the treatment period, and after the end of the treatment, the cognitive function was tested and sacrificed, and the organs were harvested to confirm the changes through biochemical methods. […]
(§5) All data were expressed as mean (S.E.M), and differences between groups were determined using one-way ANOVA and Tukey's multiple comparisons test. When it was determined that there was a statistical difference, p<0.05 *, p<0.01 **, p<0.001 *** were indicated.

[6] = tested on: HT22 cells; test: Neuronal inflammation inhibition, LPS-induced cytotoxicity (Cyto X cell viability assay); type: cell-based, mouse; conditions: 2.5 μM, LPS 1 μg/mL 24 hours, FIG. 8
Protocol: as §3
Cells were seeded at 10,000 cells in 160 μl of medium into each well of a 96-well plate and incubated in a 37° C. incubator at 5% CO^2 for 24 h. The compounds were added to the culture medium to a final concentration of 2.5 μM. After incubation, LPS (lipopolysaccharide) from Cell application was added at a concentration of 1 μg/mL and incubated for another 24 hours. The Cyto X cell viability assay kit from the same company was then added 20 μl to each well and incubated for 1 to 4 hours. The color change was then measured at 450 nm.

[7] = tested on: human kidney-2 (HK2) cells; test: Toxicity test, EZ-Cytox kit; type: cell-based; conditions: 12.5 μM or 25 μM, 24 hours, FIG. 6
Protocol: Cultured human kidney-2 (HK2) cells were treated with Comparative Example 1, Example 2 and Examples 9 to 10 at a concentration of 25 μM or 12.5 μM, and after 24 hours, cytotoxicity was measured using an EZ-Cytox kit.

[8] = tested on: phospho-Tau; test: phospho-Tau immunohistochemistry of brain tissue sections, 5×FAD cognitive dysfunction animal model; type: in vivo; conditions: 5×FAD mice, 10 mg/kg p.o. daily, FIG. 9
Excerpt: (§6) In this experiment, 5×FAD mice aged 4 months or 6 months were used. 5×FAD mice are Alzheimer's mice genetically modified to overproduce beta amyloid (Aβ, β amyloid) and were provided by the KIST Research Animal Resource Center, which maintains and sells them. Normal control (WT) mice, which are not genetically modified to overproduce β-amyloid (Aβ), were provided by the KIST Research Animal Resource Center. The animals were acclimatized for 1 week before the experiments. Mice were kept on an ad libitum diet in an animal room maintained at 22±2° C. and 40-60% humidity, and the light and dark cycles were controlled at 12-hour intervals. All animal experiments were performed in accordance with the animal care and use regulations of the Institutional Animal Care and Use Committee of the Korea Advanced Institute of Science and Technology (KIST).
(§7) Animal model mice and normal control mice received vehicle (5% DMSO+65% PEG400+30% Saline) or vehicle with KS1 (Example 10) dissolved in it orally (p.o.) at a concentration of 10 mg/kg daily for 4 or 12 weeks. Three mice were used per experimental group. The body weight was measured weekly during the treatment period, and after the end of the treatment, the cognitive function was tested and sacrificed, and the organs were harvested to confirm the changes through biochemical methods.
as §5
The fluorescence levels of phospho-Tau measured in each region (HPC: hippocampus; CTX: neocortex) of brain tissue sections isolated from control (CTL) and KS1 1-month and 3-month treatment groups of 5×FAD cognitive dysfunction animal model and normal control animal model were investigated by Immunohistochemistry.

[9] = tested on: NeuN; test: NeuN immunohistochemistry of brain tissue sections, 5×FAD cognitive dysfunction animal model; type: in vivo; conditions: 5×FAD mice, 10 mg/kg p.o. daily, FIG. 10
Excerpt: as §6, §7, §5
The fluorescence level of NeuN measured in each region (CTX: neocortex, CA: […], DG: dentate gyrus) of brain tissue sections isolated from control (CTL) and KS1 1-month and 3-month treatment groups of 5×FAD cognitive dysfunction animal model and normal control animal model was investigated by Immunohistochemistry.

[10] = tested on: 5×FAD mice; test: Novel object recognition test (NOR) in 5×FAD mice; type: in vivo; conditions: 10 mg/kg p.o. daily, compared to vehicle, FIG. 11
Excerpt: as §4
Animal model mice and normal control mice received vehicle (5% DMSO+65% PEG400+30% Saline) or vehicle with KS1 (Example 10) dissolved in it orally (p.o.) at a concentration of 10 mg/kg daily for 4 or 12 weeks. […] The body weight was measured weekly during the treatment period, and after the end of the treatment, the cognitive function was tested and sacrificed, and the organs were harvested to confirm the changes through biochemical methods.
The novel object recognition test is a modification of the existing method and consists of an adaptation period, an exploration period, and a novel object recognition period. […] The next day, one of the objects was replaced with a new object and the animal's movement was measured for 10 minutes. […]

[11] = tested on: klotho (KL) gene; test: Quantitative evaluation of klotho (KL) gene expression level using general PCR in RPTEC cells; type: cell-based, human; conditions: 2.5 μM, 6 hours, FIG. 5
Protocol: After RPTEC cells, which are epithelial cells of the proximal tubule of the human kidneys, were each treated with the compounds of Examples 7 to 10 at 2.5 μM for 6 hours, RNA was extracted from the cells, and cDNA was prepared from the extracted RNA using a Superscript II kit from Thermo Fisher Scientific, Inc., and then general PCR was performed.
Information on the primers used in the experiment is as follows. • KL-F […] (SEQ ID NO: 1) • KL-R […] (SEQ ID NO: 2) • GAPDH-F […] (SEQ ID NO: 3) • GAPDH-R […] (SEQ ID NO: 4)
The DNA amplified by PCR was confirmed by staining with ethidium bromide after electrophoresis on an agarose gel, and the amounts of DNA in the band were quantitatively compared using the SPEedyQuant program, and are illustrated in FIG. 5.

[12] = RPTECs, Examples at 0.5, 1 and 5 μM vs Comparative Example 1 at 5 μM, FIG. 2

O=C(Nc1ccccc1Cl)c1c[nH]c2ccccc12 [Comparative Example 1, N-(2-chlorophenyl)-1H-indole-3-carboxamide]
luciferase activity [1]: the highest

O=C(Nc1nc2ccccc2o1)c1ccc([N+](=O)[O-])cc1Cl [Example 1, N-(benzo[d]oxazol-2-yl)-2-chloro-4-nitrobenzamide]
expression of the reporter gene (pHKP-luc) [2, 12]: level similar to that of Comparative Example 1

Cc1ccc2oc(Nc3ccc(Cl)c(Cl)c3)nc2c1 [Example 2]
expression of the reporter gene (pHKP-luc) ([2]; RPTEC cells, 5 μM, vs Comparative Example 1, FIG. 3): level similar to that of Comparative Example 1
expression of the reporter gene (pHKP-luc) [2, 12]: level similar to that of Comparative Example 1
klotho (KL) gene mRNA expression level, real-time PCR [3]: level similar to that of Comparative Example 1

Fc1ccc(Nc2nc3ccccc3o2)cc1F [Example 10, N-(3,4-difluorophenyl)benzo[d]oxazol-2-amine]
β-galactosidase stained cells as a percentage of the total number of cells ([4]; HT22 cells cultured for 20 passages, 2.5 μM in the medium, DMSO control about 50%): 40%
decrease in the degree of senescence compared to cells grown in medium containing DMSO ([4]; HT22 cells, 20 passages, 2.5 μM): 20%
spatial learning and memory performance, passive avoidance test [5]: maintained a similar level of performance to normal mice
percentage of cells killed by LPS treatment ([6]; HT22 cells cultured for 5 passages, DMSO control 50%): 45%
percentage of cells killed by LPS treatment ([6]; HT22 cells cultured for 20 passages, DMSO control about 80%): 60%
cytotoxicity [7]: the least toxicity
improvement of toxicity compared to Comparative Example 1 [7]: ≥ 20%
expression of phospho-Tau protein, hippocampus (HPC) region ([8]; 1-month and 3-month treatment): reduced expression of the proteins was seen in only the 3-month treated mice
expression of phospho-Tau protein, primary somatosensory cortex (CTX) region ([8]; 1-month and 3-month treatment): reduced expression of the proteins was seen in both 1- and 3-month treated mice
expression of phospho-Tau protein ([8]; compared to vehicle): reduced to a statistically significant level
expression of NeuN neuromarker protein ([9]; compared to vehicle): increased to a statistically significant level
NeuN, Cornu Ammonis (CA) [9]: an increase in NeuN was confirmed
NeuN, dentate gyrus (DG) [9]: no significant increase
NeuN, primary somatosensory cortex (CTX) [9]: no significant increase
object detection ability (NOR) [10]: statistically significant increase in object detection ability
expression level of the klotho (KL) gene relative to Comparative Example 1 [11]: about 10 times
